Data published in BindingDB's records for doi:10.1016/s0960-894x(02)00329-3 (Sankyo, 2002).

Molecular target: Neuraminidase (Influenza A virus (strain A/Puerto Rico/8/1934 H1N1), UniProt P03468)
Test: Inhibition of influenza A sialidase in vitro.

Chain of Neuraminidase (P03468 whole entry): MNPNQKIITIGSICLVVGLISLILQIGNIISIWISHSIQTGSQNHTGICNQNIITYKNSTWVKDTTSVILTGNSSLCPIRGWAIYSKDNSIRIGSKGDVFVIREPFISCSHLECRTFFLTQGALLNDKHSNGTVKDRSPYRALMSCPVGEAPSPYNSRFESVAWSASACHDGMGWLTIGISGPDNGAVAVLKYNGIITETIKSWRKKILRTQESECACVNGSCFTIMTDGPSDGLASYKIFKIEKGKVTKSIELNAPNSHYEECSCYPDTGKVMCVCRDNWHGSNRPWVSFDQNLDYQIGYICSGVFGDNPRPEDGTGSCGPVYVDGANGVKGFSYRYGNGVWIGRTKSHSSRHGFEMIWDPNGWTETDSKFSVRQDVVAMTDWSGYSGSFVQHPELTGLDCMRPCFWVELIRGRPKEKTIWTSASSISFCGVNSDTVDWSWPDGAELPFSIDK

Row | Structure (SMILES) | IC50
1 | [C]C(=O)[N][C][C]O[C@@H]([C@@H]1OC(C([O])=O)=[C][C@H](N=C([N])[N])[C@H]1[N]C([C])=O)[C@H]([O])[C][O] | 18.4 nM
2 | [C][C][C][C][C]O[C@H]([C][C])[C@@H]1OC(C([O])=O)=[C][C@H](N=C([N])[N])[C@H]1[N]C([C])=O | 18.8 nM
